# Reference: patent publication US6563025B1, “Nucleotide sequences encoding anthranilate synthase” (Board of Trustees of the University of Illinois, priority 1996, dated 2003)
# Where “and” joins values, the source holds several entries; their conditions need not be identical. Equal values may be shown once. Entries after “also recorded” stand apart in the source; their conditions may differ. Read-outs that look alike come from different tables or passages of the source.
# Assays:
# A. sinicus seedlings = test: Direct selection of hairy root lines from A. sinicus seedlings; format: cell-based
# Method: Four to seven day old seedlings of A. sinicus with roots removed were then fully immersed in the 1 day cultured bacterial suspension in a petri dish for 10 min, wiped with sterilized filter paper and then placed on partially water immersed filter paper and incubated under 16 h light ([…] m-2 s-1, cool white fluorescent lamps). Three days after co-cultivation, plants were transferred to Murashige and Skoog (Murashige, T., & Skoog, F. Physiol. Plant. 15:473-497, 1962), MS, medium solidified with 3g/l Gellan Gum containing 500 mg/l of carbenicillin disodium and 75 mg/l kanamycin.
# Since the A. sinicus hairy root lines initially selected for kanamycin-resistance but which were also transformed with the feedback-insensitive ASA2 cDNA show resistance to growth inhibition by 5MT (FIG. 18), we wanted to determine if direct selection could be done for A. sinicus hairy root line formation on medium containing 5MT (FIGS. 21A and 21B). Transformation of A. sinicus seedlings with DC-AR2 harboring pBIN-ASA2 gave rise to hairy root line formation on medium containing 0, 15, 20, 25, 30 and 40 μM 5MT but inhibition occurred at 50, 75 and 100 μM.
# soybean hairy root lines = test: Quantitative root growth test of soybean hairy root lines with 5MT; format: cell-based; settings: solid medium, 8 weeks; compared with A. sinicus
# Method: The soybean (cv. Williams 82) cotyledons from 4 to 6-day-old-seedlings were harvested and wounded with a scalpel previously-dipped into an overnight culture of the A. rhizogenes strain K599. Cotyledons were inoculated by cutting the adaxial face several times to form a checked wound site and the abaxial side was placed on sterile distilled water partially immersed filter paper and incubated as described above. Three days after inoculation, cotyledons were transferred to medium containing Murashige and Skoog basal minerals and B5 organics (Gamborg, O. L., et al. Expt. Cell. Res. 50: 148-151, 1968) solidified with 3 g/1 Gellan gum (Kelko, Division of Merck) (MXB medium) in 100×25 mm petri dishes. To inhibit the growth of bacteria and to select transformed roots, 500 mg/l of carbenicillin disodium and 200 mg/l kanamycin were added to the MXB medium. After hairy roots developed from wounded cotyledons,. single root tips (2-3 cm) were excised and used to establish bacteria-free root clones by subculture to fresh MXB solid medium grown at 28° C. in the dark. […]
# Large numbers of kanamycin resistant root lines were produced from soybean cotyledons transformed with pBIN-ASA2 and a quantitative root growth test was also performed to assess the extent of 5MT resistance of the transformed hairy root lines. […]
# E. coli trpE5972 = test: Complementation and inhibition tests in trpE mutant E. coli; format: cell-based; settings: no Trp
# Method: The pQES61K was transformed into a trpE nonsense (trpE 5972) mutant E. coli. The trpE nonsense mutant E. coli (trpE 5972) transformed with an expression vector itself (Vector) and the ASA2 cDNA ligated into the expression vector (ASA2) were plated on the M9 minimal medium containing, isopropyl-thiogalactoside (IPTG, 0.1 mM) and ampicillin (100 μg/ml) and either with Trp (+Trp, FIG. 5A) or without Trp (−Trp, FIG. 5B). The complemented strain grew well on M9 medium without Trp and also with 300 μM 5MT (FIG. 5C) which inhibits the growth of the complemented strain carrying feedback-sensitive plant AS (Bohlmann et al., Plant Physiol., 111: 507-514, 1996).
# The chimeric constructs were transformed into trpE mutant E. coli (trpE5972, nonsense mutant) using CaCl2 transformation (Sambrook et al., 1989, supra). Complemented strains were plated on M9 minimal medium containing ampicillin (100 μg/ml) and isopropylthiogalactoside (IPTG, 0.1 mM), but no Trp. For the inhibition test, 300 μM 5MT was added to the minimal medium described previously. FIGS. 16A and 16B were taken two days after streaking.
# [1] = test system: A. sinicus hairy root lines; test: Quantitative root growth test of A. sinicus hairy root lines with 5MT; format: cell-based
# Method: Hairy roots were weighed to determine fresh weight, and these samples were dried for 12 h at […] before dry weight determination.
# Since expression of the feedback-insensitive ASA2 gene should increase resistance to the Trp analog 5MT as shown previously with E. coli (Song et al., 1998), a quantitative root growth test was used to assess the extent of 5MT resistance of the transformed hairy root lines. Transformed roots were grown for 6 weeks with 0, 10, 15, 20, 25, 30, 40, 50, 75 and 100 μM 5MT in both MS liquid and solid medium, respectively (FIGS. 18A to 18C and FIGS. 19A and 19B).
# altered AS = altered AS (Arabidopsis thaliana, UniProt P32068, D341N); settings: 100 μM Trp; cited from earlier work
# AS [2] = test: AS activity in extracts of tobacco suspension cultured cells, inhibition by Trp; format: biochemical, N. tabacum; settings: 100 μM Trp; original 5MT-resistant cell lines
# tobacco ASA2 [3] = test: Feedback inhibition assay of tobacco ASA2 expressed in E. coli; format: biochemical, N. tabacum; settings: partially purified ASA2 expressed in E. coli
# Method: The tobacco ASA2 gene was expressed in E. coli strain trpE5972, a mutant line containing a nonsense trpE gene, grown to late log phase on Luria Bertani medium with 100 μM Trp. Expression was induced by addition of 100 μM isopropylthiogalactoside. A protease inhibitor, 135 μM phenylmethylsulfonylfluoride (PMSF), was added with further incubation for three hours at 30° C., 150 rpm. The cells were collected by centrifugation and resuspended in 50 mM Tris, 5 mM MgCl2, 100 mM NH4Cl, 2 mM dithiothreitol, 20% glycerol, pH 8.0 plus 100 μM PMSF and disrupted using a French press (2 passes, 20,000 psi). Cell debris was removed by centrifugation and the supernatant treated with Ni-affinity resin. Bound protein was eluted with 100 μM imidazole in pH 6.3 buffer.
# Arabidopsis ASA1 = target: T1, Arabidopsis ASA1 (Arabidopsis thaliana, UniProt P32068); test: Feedback inhibition assay of Arabidopsis ASA1 expressed in E. coli; format: biochemical, A. thaliana; settings: 100 μM and lower concentrations of Trp; crude E. coli cell extract
# T1 construct: made in house; host or cells: E. coli JM109
# T1 sequence (P32068 55-595): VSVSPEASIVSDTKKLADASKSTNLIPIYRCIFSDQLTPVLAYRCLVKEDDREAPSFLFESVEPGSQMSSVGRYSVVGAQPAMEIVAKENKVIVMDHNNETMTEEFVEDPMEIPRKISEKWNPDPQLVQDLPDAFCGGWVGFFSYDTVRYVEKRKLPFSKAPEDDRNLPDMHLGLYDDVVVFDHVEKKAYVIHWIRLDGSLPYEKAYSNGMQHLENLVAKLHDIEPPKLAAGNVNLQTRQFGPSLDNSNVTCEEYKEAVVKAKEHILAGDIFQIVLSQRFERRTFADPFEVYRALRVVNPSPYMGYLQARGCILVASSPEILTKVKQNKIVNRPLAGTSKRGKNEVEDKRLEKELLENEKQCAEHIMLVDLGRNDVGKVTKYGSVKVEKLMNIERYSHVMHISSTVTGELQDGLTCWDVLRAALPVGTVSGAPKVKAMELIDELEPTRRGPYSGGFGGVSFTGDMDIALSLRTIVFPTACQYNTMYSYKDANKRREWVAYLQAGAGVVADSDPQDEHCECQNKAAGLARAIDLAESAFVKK
# Method: The tobacco ASA2 gene was expressed in E. coli strain trpE5972, a mutant line containing a nonsense trpE gene, grown to late log phase on Luria Bertani medium with 100 μM Trp. Expression was induced by addition of 100 μM isopropylthiogalactoside. A protease inhibitor, 135 μM phenylmethylsulfonylfluoride (PMSF), was added with further incubation for three hours at 30° C., 150 rpm. The cells were collected by centrifugation and resuspended in 50 mM Tris, 5 mM MgCl2, 100 mM NH4Cl, 2 mM dithiothreitol, 20% glycerol, pH 8.0 plus 100 μM PMSF and disrupted using a French press (2 passes, 20,000 psi). Cell debris was removed by centrifugation and the supernatant treated with Ni-affinity resin. Bound protein was eluted with […] imidazole in pH 6.3 buffer. The Arabidopsis ASA1 gene was similarly expressed except that the E. coli strain JM109 was used and enzyme activity in a crude cell extract without Ni-affinity purification was characterized.
# Enzyme activity was measured with and without Trp in 50 mM Tris, 5 mM M?gCl2, 1 mM EDTA, 100 mM NH4Cl, 2 mM dithiothreitol, 20% glycerol, pH 7.8 plus 100 μM chorismate. Anthranilate produced in; 30 min at 30° C. was extracted using ethyl acetate and fluorescence measured at excitation 340 and emission 400.
# anthranilate synthase = test: AS activity in extracts of A. sinicus hairy root lines, inhibition by Trp; format: biochemical; settings: control lines; Trp concentration causing 50% inhibition; NH4Cl as second substrate; read-out: apparent Ki for Trp
# Method: Extracts were prepared using a Tenbroeck tissue grinder (Kontes Glass Co., Vineland, N.J.), and the ASA1 extraction buffer (2 ml/g tissue) described by Bernasconi and coworkers (Bernasconi, P., et al., Plant Physiol., 106: 353-358, 1994). After removal of cellular debris by centrifugation (10 min at 35,000 × g and 4° C.), one volume of the supernatant was combined with two volumes of room temperature saturated (NH4)2SO4, and then centrifuged as before. The resulting pellet was resuspended in extraction buffer (1 ml/g tissue) and used immediately. When glutamine was used as the second substrate for the AS catalyzed reaction, the resuspended enzyme solution was desalted using Sephadex G25 to remove residual (NH4)2SO4.
# AS activity was measured as described in Song et al. (1998, supra) except the assay buffer was that described by Bernasconi et al. (1994, supra) without NH4Cl in the buffer. Either 100 mM NH4Cl or 10 mM glutamine was added to the assay mixture to determine α-subunit activity or AS holoenzyme activity, respectively.
# tobacco ASA2 [4] = settings: ASA2 expressed in E. coli; read-out: apparent Ki for Trp; cited from earlier work
# AS [5] = settings: cited from earlier work; for Ki: read-out: apparent Ki for Trp
# [6] = seedlings transformed with DC-AR2 harboring pBIN-ASA2
# [7] = control hairy root lines, 6 weeks
# altered AS, sequence (P32068 55-595 D341N): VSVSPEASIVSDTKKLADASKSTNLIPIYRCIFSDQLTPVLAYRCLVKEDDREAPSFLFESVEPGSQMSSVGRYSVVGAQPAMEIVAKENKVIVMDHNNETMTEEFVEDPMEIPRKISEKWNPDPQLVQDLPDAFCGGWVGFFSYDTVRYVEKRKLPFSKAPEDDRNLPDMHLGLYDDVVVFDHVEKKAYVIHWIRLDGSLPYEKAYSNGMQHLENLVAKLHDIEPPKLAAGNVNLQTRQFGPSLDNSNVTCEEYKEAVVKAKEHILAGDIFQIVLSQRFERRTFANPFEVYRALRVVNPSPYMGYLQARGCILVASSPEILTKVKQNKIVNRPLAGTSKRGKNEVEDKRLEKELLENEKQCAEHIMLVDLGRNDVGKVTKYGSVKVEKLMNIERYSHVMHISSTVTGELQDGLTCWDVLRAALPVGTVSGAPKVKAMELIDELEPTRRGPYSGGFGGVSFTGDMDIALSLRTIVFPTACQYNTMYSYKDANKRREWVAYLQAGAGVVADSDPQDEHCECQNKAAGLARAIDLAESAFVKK
structure (smiles),measurement,setting,value
"Cc1ccc2[nH]cc(C[C@H](N)C(=O)O)c2c1 [5MT, 5-methyltryptophan]",5MT concentration for effective direct selection of 35S-ASA2 transformed roots,A. sinicus seedlings,15 to 40 µM
same,5MT concentration at which roots turned brown and died,"A. sinicus seedlings; control roots, DC-AR2, subculture",≥ 15 µM
same,5MT concentration at which no hairy root lines were formed,"A. sinicus seedlings; control, transformed with DC-AR2",≥ 25 µM
same,5MT concentration allowing hairy root line formation,A. sinicus seedlings; [6],≤ 40 µM
same,5MT concentration at which inhibition of hairy root formation occurred,A. sinicus seedlings; [6],≥ 50 µM
same,Sensitivity of hairy root lines to 5MT inhibition,soybean hairy root lines,more sensitive to 5MT inhibition than those of A. sinicus
same,Growth on minimal medium with 5MT,"E. coli trpE5972; site-directed mutagenized ASA2 alone, 10 μM 5MT",could not grow
same,Growth on minimal medium with 5MT,"E. coli trpE5972; strain transformed with ASA2 cDNA, 300 μM 5MT",grew well; also recorded: not inhibited
same,Growth on minimal medium with 5MT,"E. coli trpE5972; strain transformed with site-directed mutant (Ser107, Gln108), 300 μM 5MT",did not grow
same,5MT concentration inhibiting hairy root growth,[1]; [7],10 to 20 µM
same,5MT concentration of almost complete inhibition,[1]; [7],≥ 30 µM
same,5MT concentration at which lines turned brown and died,"[1]; control hairy root lines, liquid medium",≥ 20 µM
same,5MT concentration at which lines grew,"[1]; transformed lines A-7, 8, 9, 10 and 20, liquid medium",up to 100 μM
same,5MT concentration at which lines are able to grow,"[1]; transformed lines A-7, 8, 9, 10 and 20, maximum concentration tested",up to 100 μM
"N[C@@H](Cc1c[nH]c2ccccc12)C(=O)O [Trp, tryptophan]",AS inhibition by Trp,altered AS,95%
same,enzyme activity of the feedback-insensitive ASA2,AS [2],50%
same,AS activity remaining at 100 μM Trp,tobacco ASA2 [3],50%
same,Inhibition of Arabidopsis ASA1 gene product by Trp,Arabidopsis ASA1,completely inhibited
same,Ki,anthranilate synthase,2000 nM and 3000 nM
same,Ki,tobacco ASA2 [4],100000 nM
same,AS activity remaining,"AS [5]; 900 μM Trp, 5MT-selected tobacco cells overexpressing ASA2, also AB15-12-1",20%
same,Ki,AS [5]; extracts of 5MT-resistant tobacco suspension cultured cells,300000 nM
same,Ki,AS [5]; extracts of wild-type tobacco suspension cultured cells,2000 nM
